{"source": "patent US9597407B2", "about": "“Targeted antimicrobial moieties” (C3 Jian, Inc., priority 2009, dated 2017)", "note": "“Also recorded” adds a separate entry of the source."}
{"system": "bacteria", "experiment": "Binding of targeting peptides to microorganisms (Table 3)", "settings": "microorganism bound by the targeting peptide; binding in aqueous buffers chosen by peptide solubility, preferably 1x PBS"}
{"substance": "PF-097 (QPTQGEQGTRPRRPTPMRGLLI; Peptide with targeting and/or antimicrobial activity)", "Target(s)": "C. jeikeium"}
{"substance": "PF-368 (MLKQTA; Peptide with targeting and/or antimicrobial activity)", "Target(s)": "C. jeikeium; also recorded: C. jejuni"}
{"substance": "PF-247 (ETAASETH; Peptide with targeting and/or antimicrobial activity)", "Target(s)": "S. epidermidis"}
{"substance": "PF-253 (VRDDDS; Peptide with targeting and/or antimicrobial activity)", "Target(s)": "S. epidermidis; also recorded: M. luteus"}
{"substance": "PF-288 (IYQLLNIEYSEDD; Peptide with targeting and/or antimicrobial activity)", "Target(s)": "S. mutans; also recorded: E. coli"}
{"substance": "PF-166 (SKAVSRKRSI; Peptide with targeting and/or antimicrobial activity)", "Target(s)": "E. coli; also recorded: C. jeikeium"}
{"substance": "PF-300 (VKDVLLELFNKIIGA; Peptide with targeting and/or antimicrobial activity)", "Target(s)": "B. subtilis; also recorded: C. difficile"}
{"substance": "PF-202 (ALNRASLRLALGE; Peptide with targeting and/or antimicrobial activity)", "Target(s)": "S. epidermidis and M. luteus and E. coli and MRSA and E. faecalis and C. jeikeium and C. jejuni"}
{"substance": "PF-311 (IDAVTKKKTTCMIRAPTKIPIAHTDN; Peptide with targeting and/or antimicrobial activity)", "Target(s)": "C. difficile"}
{"system": "bacteria", "experiment": "Binding of targeting peptides to microorganisms (Table 3)", "settings": "microorganism the targeting peptide binds; binding in aqueous buffers that varied with peptide solubility, preferably 1x PBS"}
{"substance": "1T-301 (SKLPRVLDASLKL; Peptide with targeting and/or antimicrobial activity) [Peptide 1T-301]", "Target(s)": "F. nucleatum; also recorded: S. gordonii; also recorded: S. sanguinis"}
{"substance": "PF-038 (MAYKDEGKETKFAVKGYKD; Peptide with targeting and/or antimicrobial activity)", "Target(s)": "M. luteus"}
{"substance": "1T-287 (KGYPLPFQYRLNNH; Peptide with targeting and/or antimicrobial activity) [Peptide 1T-287]", "Target(s)": "P. gingivalis; also recorded: T. denticola; also recorded: S. gordonii; also recorded: S. mitis; also recorded: S. mutans; also recorded: S. oralis; also recorded: S. salivarious; also recorded: S. sanguinis"}
{"substance": "TT-306 (KILNEAEGKLLKVIEKNGEIDIEEI; Peptide with targeting and/or antimicrobial activity)", "Target(s)": "F. nucleatum"}
{"substance": "1T-248 (IGGALNSCG; Peptide with targeting and/or antimicrobial activity) [Peptide 1T-248]", "Target(s)": "S. sanguinis"}
{"substance": "1T-269 (PLYVAAVEKINTAKKH; Peptide with targeting and/or antimicrobial activity) [Peptide 1T-269]", "Target(s)": "F. nucleatum; also recorded: S. mutans; also recorded: S. oralis; also recorded: S. sanguinis"}
{"substance": "1T-201 (KRKHENVIVAEEMRVIKN; Peptide with targeting and/or antimicrobial activity) [Peptide 1T-201]", "Target(s)": "S. sanguinis"}
{"substance": "PF-018 (YYKTYFKEV; Peptide with targeting and/or antimicrobial activity)", "Target(s)": "E. coli; also recorded: C. jeikeium"}
{"substance": "1T-256 (KGKSLMPLLKQINQWGKLYL; Peptide with targeting and/or antimicrobial activity) [Peptide 1T-256]", "Target(s)": "S. sanguinis"}
{"substance": "1T-274 (ETTTEINAIKLHRIKQRSPQGTRRVN; Peptide with targeting and/or antimicrobial activity) [Peptide 1T-274]", "Target(s)": "F. nucleatum; also recorded: S. mutans; also recorded: S. oralis; also recorded: S. sanguinis"}
{"substance": "1T-188 (HRKDVYKK; Peptide with targeting and/or antimicrobial activity) [Peptide 1T-188]", "Target(s)": "S. sanguinis"}
{"system": "bacteria", "experiment": "Binding of targeting peptides to microorganisms (Table 3)", "settings": "peptide binding in aqueous buffers that varied depending on peptide solubility; preferably 1x PBS"}
{"substance": "PF-568 (TQAVQVKTAQAQQQ; Peptide with targeting and/or antimicrobial activity)", "Target(s) (microorganisms bound by the targeting peptide)": "S. epidermidis"}
{"substance": "PF-S023 (MAEDERRALKRRTNRGRTRTRKRITV; Peptide with targeting and/or antimicrobial activity)", "Target(s) (microorganism bound by the targeting peptide)": "S. epidermidis and MRSA"}
{"substance": "PF-790 (PAGPDHLDQRDHR; Peptide with targeting and/or antimicrobial activity)", "Target(s) (microorganism bound by the targeting peptide)": "Mycobacteria spp."}
{"substance": "PF-S004 (VLLNIFRTLLEFFSPSNAPGAEDVPLPDTQA; Peptide with targeting and/or antimicrobial activity)", "Target(s) (microorganism bound by the targeting peptide)": "S. epidermidis and MRSA and C. jeikeium"}
{"substance": "PF-701 (PRGAQSGHG; Peptide with targeting and/or antimicrobial activity)", "Target(s) (microorganism bound by the targeting peptide)": "S. mutans"}
{"substance": "PF-500 (MGIFKEEKIKFIDCKGEEVILKIKIKDIKK; Peptide with targeting and/or antimicrobial activity)", "Target(s) (microorganisms bound by the targeting peptide)": "S. mutans; also recorded: E. coli"}
{"substance": "PF-799 (YTHYNTALSYALLLTNKSSVP; Peptide with targeting and/or antimicrobial activity)", "Target(s) (microorganism bound by the targeting peptide)": "S. mutans"}
{"substance": "PF-716 (HGENHHHKSDEKDNDSSEKKD; Peptide with targeting and/or antimicrobial activity)", "Target(s) (microorganism bound by the targeting peptide)": "S. mutans"}
{"substance": "PF-689 (SAPSG; Peptide with targeting and/or antimicrobial activity)", "Target(s) (microorganism bound by the targeting peptide)": "S. mutans; also recorded: E. coli"}
{"substance": "PF-788 (GLITVFAGTARILQLRRAAKKTHAAALR; Peptide with targeting and/or antimicrobial activity)", "Target(s) (microorganism bound by the targeting peptide)": "Mycobacteria spp."}
{"substance": "PF-733 (VISRQMGSEAVLELFIIM; Peptide with targeting and/or antimicrobial activity)", "Target(s) (microorganism bound by the targeting peptide)": "S. mutans; also recorded: E. coli"}
{"substance": "PF-772 (TKESSS; Peptide with targeting and/or antimicrobial activity)", "Target(s) (microorganism bound by the targeting peptide)": "S. epidermidis and C. albicans and MRSA and S. pneumoniae and C. jeikeium"}
{"substance": "PF-778 (MNLILTAHGT; Peptide with targeting and/or antimicrobial activity)", "Target(s) (microorganism bound by the targeting peptide)": "Mycobacteria spp."}
{"substance": "PF-750 (AESSPAKTTA; Peptide with targeting and/or antimicrobial activity)", "Target(s) (microorganism bound by the targeting peptide)": "M. luteus; also recorded: C. jeikeium"}
{"substance": "PF-728 (AIGQEQDRREYYYYSGYPYYY; Peptide with targeting and/or antimicrobial activity)", "Target(s) (microorganism bound by the targeting peptide)": "S. mutans; also recorded: E. coli"}
{"substance": "PF-797 (WYYFDNNGYM; Peptide with targeting and/or antimicrobial activity)", "Target(s) (microorganism bound by the targeting peptide)": "S. mutans"}
{"substance": "PF-483 (EDNKDKKDKKDK; Peptide with targeting and/or antimicrobial activity)", "Target(s) (microorganisms bound by the targeting peptide)": "P. mirabilis; also recorded: C. jeikeium; also recorded: C. jejuni"}
{"substance": "PF-509 (EAKVQAKGEQIACNNY; Peptide with targeting and/or antimicrobial activity)", "Target(s) (microorganisms bound by the targeting peptide)": "S. mutans; also recorded: B. subtilis; also recorded: E. coli"}
{"system": "bacteria", "experiment": "Binding of targeting peptides to microorganisms (Table 3)", "settings": "peptide binding in aqueous buffers varied by peptide solubility; preferably 1x PBS"}
{"substance": "1T-90 (RNVIGQVL; Peptide with targeting and/or antimicrobial activity) [Peptide 1T-90]", "Target(s) (microorganism bound by the targeting peptide)": "S. gordonii; also recorded: S. mitis; also recorded: S. mutans; also recorded: S. oralis; also recorded: S. sanguinis"}
{"substance": "1T-23 (PALVDLSNKEAVWAVLDDHS; Peptide with targeting and/or antimicrobial activity) [Peptide 1T-23]", "Target(s) (microorganism bound by the targeting peptide)": "S. mutans; also recorded: P. aeruginosa"}
{"substance": "1T-170 (AYGKVFSMDIMLSENDKLIVLRISHHSAWH; Peptide with targeting and/or antimicrobial activity) [Peptide 1T-170]", "Target(s) (microorganism bound by the targeting peptide)": "P. gingivalis"}
{"substance": "1T-108 (WGPLGPERPLW; Peptide with targeting and/or antimicrobial activity) [Peptide 1T-108]", "Target(s) (microorganism bound by the targeting peptide)": "S. gordonii; also recorded: S. mitis; also recorded: S. mutans; also recorded: S. oralis; also recorded: S. salivarious; also recorded: S. sanguinis"}
{"substance": "1T-31 (NATGTDIGEVTLTLGRFS; Peptide with targeting and/or antimicrobial activity) [Peptide 1T-31]", "Target(s) (microorganism bound by the targeting peptide)": "S. mutans; also recorded: P. aeruginosa"}
{"substance": "1T-47 (VIKISVPGQVQMLIP; Peptide with targeting and/or antimicrobial activity) [Peptide 1T-47]", "Target(s) (microorganism bound by the targeting peptide)": "S. mutans; also recorded: S. epidermidis; also recorded: P. aeruginosa"}
{"substance": "1T-77 (EMRISRIILDFLFLRKK; Peptide with targeting and/or antimicrobial activity) [Peptide 1T-77]", "Target(s) (microorganism bound by the targeting peptide)": "S. pneumoniae"}
{"substance": "1T-99 (MKAWLGQ; Peptide with targeting and/or antimicrobial activity) [Peptide 1T-99]", "Target(s) (microorganism bound by the targeting peptide)": "S. gordonii; also recorded: S. mitis; also recorded: S. mutans; also recorded: S. oralis; also recorded: S. sanguinis"}
{"substance": "1T-20 (PALVDLSNKEAVWAVLDDHS; Peptide with targeting and/or antimicrobial activity) [Peptide 1T-20]", "Target(s) (microorganism bound by the targeting peptide)": "S. mutans; also recorded: P. aeruginosa"}
{"substance": "1T-114 (RQAPGPGLVTITAACSAPGSRSR; Peptide with targeting and/or antimicrobial activity) [Peptide 1T-114]", "Target(s) (microorganism bound by the targeting peptide)": "A. naeslundii; also recorded: P. gingivalis; also recorded: S. epidermidis; also recorded: S. gordonii; also recorded: S. mitis; also recorded: S. mutans; also recorded: S. oralis; also recorded: S. sanguinis"}
{"substance": "1T-12 (FGNIFKGLKDVIETIVKWTAAK; Peptide with targeting and/or antimicrobial activity) [Peptide 1T-12]", "Target(s) (microorganism bound by the targeting peptide)": "C. xerosis; also recorded: C. striatum; also recorded: S. epidermidis; also recorded: S. mutans"}
